Experimental data: patent US20030180228A1, “Aerosol container for formulations of salmeterol xinafoate” (priority 2000, published 2003)

Legend:
[1] = Water content of salmeterol xinafoate HFA 134a canisters on storage, ex-valve Karl-Fischer; type: physicochemical
Protocol: The water content of the formulation may be determined by conventional Karl Fischer methodology. Typically this involves measuring the total water content of the formulation ex-valve using Couliometric titration.
(§1) In the experiments below canisters were stored in an inverted orientation. Valves all had 63 μl metering volume. Water content was measured ex-valve using Karl-Fischer methodology.
(§2) Aluminium canisters fitted with Valois D60 valve and containing 12 g HFA 134a and 6.53 mg salmeterol xinafoate were stored under various conditions of temperature and humidity and the moisture content measured and FPM measured (Andersen Cascade Impactor), with results as follows:
(§3) Aluminium canisters fitted with Valois DF60 valve and containing 12g HFA 134a and 6.53 mg salmeterol xinafoate were stored under various conditions of temperature and humidity and the moisture content measured and FPM measured (Andersen Cascade Impactor), with results as follows:
(§4) Aluminium canisters fitted with Bespak valve and containing […] and 6.53 mg salmeterol xinafoate were stored under various conditions of temperature and humidity and the moisture content measured and FPM measured (Andersen Cascade Impactor), with results as follows:
(§5) Aluminium canisters fitted with Valois DF60 valve and containing 12g HFA134a and 6.53 mg salmeterol xinafoate were stored under various conditions of temperature and humidity and the moisture content measured and FPM measured (Andersen Cascade Impactor), with results as follows: […]

[2] = Fine particle mass (FPM) by Andersen Cascade Impactor on storage, section A canisters; type: physicochemical
Protocol: The FPM of an actuation from an MDI can be calculated based on, for example, the sum of the amount of drug substance deposited on stages 3, 4 and 5 of an Andersen Cascade Impaction stack as determined by standard HPLC analysis.
as §1, §2, §3, §4, §5

[3] = (iii) Valois D60 valve, 30° C./60% RH, 3 months
[4] = (iii) Valois D60 valve, 40° C./75% RH, 1 month
[5] = (iii) Valois D60 valve, 40° C./75% RH, 3 months
[6] = (iii) Valois D60 valve, 40° C./75% RH, Initial
[7] = (iv) Valois DF60 valve, 25° C./60% RH, 1 month
[8] = (iv) Valois DF60 valve, 25° C./60% RH, 3 months
[9] = (iv) Valois DF60 valve, 25° C./60% RH, 6 month
[10] = (iv) Valois DF60 valve, 25° C./60% RH, Initial
[11] = (iv) Valois DF60 valve, 25° C./75% RH, 1 month
[12] = (iv) Valois DF60 valve, 25° C./75% RH, 3 months
[13] = (iv) Valois DF60 valve, 25° C./75% RH, 6 month
[14] = (iv) Valois DF60 valve, 25° C./75% RH, Initial
[15] = (iv) Valois DF60 valve, 40° C./75% RH, 1 month
[16] = (iv) Valois DF60 valve, 40° C./75% RH, 3 months
[17] = (iv) Valois DF60 valve, 40° C./75% RH, 6 month
[18] = (v) Bespak valve, 40° C./75% RH, 3 months
[19] = (vi) Valois DF60 valve, 40° C./75% RH, 3 months
[20] = (vii) Valois DF60 valve, 40° C./75% RH, 3 months

**Q.** Which Water content ([1]; (iii) Valois D60 valve, 6.53 mg in 12 g HFA 134a, 30° C./60% RH, Initial) does the source give for OCc1cc(C(O)CNCCCCCCOCCCCc2ccccc2)ccc1O (stereo not drawn) [salmeterol xinafoate, 4-Hydroxy-α^1-[[[6-(4-phenylbutoxy)hexyl]amino]methyl]-1,3-benzenedimethanol] here?
**A.** 92 ppm

**Q.** And the Water content [1, 3]?
**A.** 463 ppm

**Q.** What about the Water content [1, 4] of the same molecule?
**A.** 412 ppm

**Q.** And the Water content [1, 5]?
**A.** 616 ppm

**Q.** And the Water content [1, 6]?
**A.** 92 ppm

**Q.** And the Water content ([1]; (iv) Valois DF60 valve, 6.53 mg in 12 g HFA 134a, 40° C./75% RH, Initial)?
**A.** 81 ppm

**Q.** And the Water content [1, 7]?
**A.** 194 ppm

**Q.** And the Water content [1, 8]?
**A.** 405 ppm

**Q.** And the Water content [1, 9]?
**A.** 446 ppm

**Q.** What about the Water content [1, 10] of the same molecule?
**A.** 81 ppm

**Q.** What about the Water content [1, 11] of the same molecule?
**A.** 217 ppm

**Q.** And the Water content [1, 12]?
**A.** 434 ppm

**Q.** And the Water content [1, 13]?
**A.** 485 ppm

**Q.** And the Water content [1, 14]?
**A.** 81 ppm

**Q.** What about the Water content [1, 15] of the same molecule?
**A.** 360 ppm

**Q.** What about the Water content [1, 16] of the same molecule?
**A.** 540 ppm

**Q.** And the Water content [1, 17]?
**A.** 526 ppm

**Q.** What about the Water content ([1]; (v) Bespak valve, 6.53 mg in HFA 134a, 40° C./75% RH, Initial) of the same molecule?
**A.** 118 ppm

**Q.** And the Water content [1, 18]?
**A.** 457 ppm

**Q.** What about the Water content ([1]; (vi) Valois DF60 valve, 6.53 mg in 12 g HFA 134a, 40° C./75% RH, Initial) of the same molecule?
**A.** 213 ppm

**Q.** And the Water content [1, 19]?
**A.** 746 ppm

**Q.** What about the Water content ([1]; (vii) Valois DF60 valve, 6.53 mg in 12 g HFA134a, 40° C./75% RH, Initial) of the same molecule?
**A.** 181 ppm

**Q.** And the Water content [1, 20]?
**A.** 668 ppm

**Q.** What about the FPM [2, 3] of the same molecule?
**A.** 7.9 µg

**Q.** And the FPM ([2]; (iii) Valois D60 valve, 30° C./60% RH, Initial)?
**A.** 10.3 µg

**Q.** What about the FPM [2, 4] of the same molecule?
**A.** 8.2 µg

**Q.** And the FPM [2, 5]?
**A.** 6.2 µg

**Q.** What about the FPM [2, 6] of the same molecule?
**A.** 10.3 µg

**Q.** What about the FPM [2, 7] of the same molecule?
**A.** 8.4 µg

**Q.** And the FPM [2, 8]?
**A.** 8.3 µg

**Q.** What about the FPM [2, 9] of the same molecule?
**A.** 7.5 µg

**Q.** And the FPM [2, 10]?
**A.** 9.4 µg

**Q.** What about the FPM [2, 11] of the same molecule?
**A.** 8.4 µg

**Q.** And the FPM [2, 12]?
**A.** 8.0 µg

**Q.** What about the FPM [2, 13] of the same molecule?
**A.** 7.2 µg

**Q.** And the FPM [2, 14]?
**A.** 9.4 µg

**Q.** What about the FPM [2, 15] of the same molecule?
**A.** 7.8 µg

**Q.** And the FPM [2, 16]?
**A.** 6.0 µg

**Q.** And the FPM [2, 17]?
**A.** 6.2 µg

**Q.** And the FPM ([2]; (iv) Valois DF60 valve, 40° C./75% RH, Initial)?
**A.** 9.4 µg

**Q.** And the FPM [2, 18]?
**A.** 7.0 µg

**Q.** What about the FPM ([2]; (v) Bespak valve, 40° C./75% RH, Initial) of the same molecule?
**A.** 11.3 µg

**Q.** What about the FPM [2, 19] of the same molecule?
**A.** 6.7 µg

**Q.** And the FPM ([2]; (vi) Valois DF60 valve, 40° C./75% RH, Initial)?
**A.** 9.5 µg

**Q.** What about the FPM [2, 20] of the same molecule?
**A.** 7.4 µg

**Q.** What about the FPM ([2]; (vii) Valois DF60 valve, 40° C./75% RH, Initial) of the same molecule?
**A.** 9.6 µg
